{"source": "patent US20170258787A1", "about": "“PROPHYLACTIC AND/OR THERAPEUTIC AGENT FOR BEHAVIORAL AND PSYCHOLOGICAL SYMPTOMS ASSOCIATED WITH NEURODEGENERATIVE DISEASE OR IMPULSIVE SYMPTOMS ASSOCIATED WITH MENTAL DISEASE CONTAINING BREXPIPRAZOLE OR SALT THEREOF” (OTSUKA PHARMACEUTICAL CO., LTD., priority 2012, published 2017)", "key": {"[1]": {"tested_on": "patients with highly severe Alzheimer's disease", "details": "12 weeks, Alzheimer's disease patients in nursing home, cited from earlier work"}, "[2]": {"tested_on": "Wistar rat", "details": "reported in Alcohol & Alcoholism 2001; 36:2-10; cited from earlier work"}, "[3]": {"tested_on": "mouse having a Disc1 L100P point mutation", "details": "Neuron 54(3): 387-402, 2007; cited from earlier work"}, "[4]": {"tested_on": "schizophrenia patients", "details": "Psychiatric Services 2001, 52:1510-14; cited from earlier work"}, "[5]": {"tested_on": "Wistar rat", "experiment": "Measurement of alcohol intake by limited access paradigm", "assay_type": "in vivo", "procedure": "Measurement method: An impulsive behavior of cravings for alcohol was evaluated as follows by reference to the method of Sinclair et al. (Alcohol 1992; 9:441-44 and Alcohol & Alcoholism 2001; 36:2-10). First, Wistar rat (male) was allowed to freely take 10% aqueous ethanol solution and tap water for several weeks under isolated housing. After stabilization of ethanol intake by each animal, a limited access paradigm allowing ethanol intake for only 1 hr per day was started, and the ethanol intake for 1 hr was measured every day. Ethanol intake was calculated from the results of the weight measurement of the water supply bottle filled with 10% aqueous ethanol solution immediately before the start of the limited access paradigm and immediately after completion thereof. An animal which was showing over 0.4 g/kg/hr in terms of 100% ethanol as an average ethanol intake in the limited access paradigm for 4 days immediately before drug evaluation was used. The limited access paradigm test was performed between 9:00 AM-12:00 PM. Brexpiprazole was suspended in distilled water containing 5% gum arabic. […] An average ethanol intake in the limited access paradigm of 4 days immediately before drug evaluation and an average ethanol intake in the limited access paradigm of 4 days after drug administration were analyzed by the 2-tailed paired t-test."}, "[6]": {"tested_on": "APPSL-Tg mouse", "experiment": "Measurement of mouse circadian rhythm locomotor activity (spontaneous locomotor activity in dark period)", "assay_type": "in vivo", "details": "for spontaneous locomotor activity, dark period III (3:00-7:00), Night 1 / spontaneous locomotor activity, dark period III (3:00-7:00), Night 2 / spontaneous locomotor activity, dark period III (3:00-7:00), Night 3: APPSL-Tg mice", "source_text": "1) Measurement of Mouse Circadian Rhythm Locomotor Activity\n(§1) Animal: APPSL-Tg mouse (male) having Swedish and London APP mutations, and non-Tg mouse (male) free of a genetic mutation as a control were generated (Neuroscience Letters 2010; 469:273-277), bred in a breeding room, and used after they became 6-month-old. During the breeding, isolated housing was applied.\n(§2) Measurement method: SUPERMEX manufactured by Muromachi Kikai Co., Ltd. was used for the measurement of circadian rhythm locomotor activity. The mouse was placed in an individual cage, and the spontaneous locomotor activity of the mouse was measured for 3 days (total 62.5 hr) under free-feeding, drinking water conditions. In this apparatus, a passive infrared sensor detects infrared rays emitted from the mouse, and the number of transpositions is counted. The measured values are totaled every 30 min, and automatically totaled using a specialized software CompACT AMS. The test was performed in a soundproof chamber, so that the spontaneous locomotor activity of the mouse would not be influenced. The lighting time in the soundproof chamber was set to 7:00-19:00 as in the breeding room.\nThe amounts of spontaneous locomotor activity of non-Tg mice and APPSL-Tg mice during the dark period of 19:00-7:00 were measured in advance. The mice were grouped in such manner as makes the mean and variance of the groups equal, using the body weight and the dark period spontaneous locomotor activity as indices.\nBrexpiprazole was dissolved in distilled water containing 5% gum arabic, 5% gum arabic distilled water was used for the vehicle group, and they were orally administered to each mouse.\nFor 3 days, brexpiprazole and the vehicle were administered during the period of 17:30-18:30. After the administration, the measurement of the amount of locomotor activity was rapidly started or continued.\nThe statistical test was a two-sided test, and the significance level of the test was set to 5%. As a statistical software, SAS (R9.1, SAS Institute Japan Ltd.) was used.\nDunnett's test was performed based on the repeated measures ANOVA using a mixed model for Night 1-Night 3 at every phase I, II or III of the dark period. Furthermore, Dunnett's test was performed for every dark period and Night."}, "[7]": {"tested_on": "Wistar rat", "experiment": "Spontaneous locomotor activity under novel environments", "assay_type": "in vivo", "details": "0.1 mg/kg, data not indicated"}, "[8]": {"tested_on": "Tg2576 mouse", "experiment": "Resident-Intruder test (aggression, biting)", "assay_type": "in vivo", "details": "0.03 mg/kg oral 1 hr before test", "source_text": "Animal: Tg2576 mice (male) having a Swedish APP mutation (K670N, M671L) and non-Tg mice (male) free of the same genetic mutation as a control were purchased from Taconic, and bred and aged until 5- to 6-month-old of age. During the breeding, isolated housing was applied. Measurement method: For the experiment, Tg2576 or non-Tg mouse [Resident] and A/J mouse [Intruder] almost free of aggression were used. Resident formed a sufficient territory by isolated housing for 14 days. […] As the aggressive behavior, biting was noted, and the time necessary for the first biting and total number of biting for 10 min were measured. The measurement was performed within the dark period phase 1 (4 hr) when the amount of locomotor activity of the mouse is the highest. Tg2576 (48 mice) and non-Tg mice (10 mice) were subjected to a Resident-Intruder test in advance, and promotion of the to aggression of the Tg2576 mouse was confirmed. Five Tg2576 mice free of aggression were excluded and 43 mice were used for the test. The mice were grouped into 3 groups in such manner as makes the mean and variance of the groups equal, using the time necessary for the first attack and total number of biting for 10 min, which were obtained in the preliminary test, as indices (total 43 mice). […]"}, "[9]": {"tested_on": "c-fos-GFP mouse", "experiment": "Measurement of nerve activation pattern (GFP signal) of c-fos-GFP mouse", "assay_type": "in vivo", "details": "brain isolated 3 hr later", "procedure": "Measurement method: c-fos is an indirect marker for neuronal activity, which is expressed on activation of nerve cell. Using a transgenic mouse introduced with a green fluorescent protein (GFP) gene at the downstream of the promoter of c-fos gene (c-fos-GFP mouse), the nerve activation pattern in the brain was measured. Brexpiprazole or vehicle was administered, and the brain was isolated 3 hr later. GFP signals from serial sections of the whole brain were stored in a computer using a two-photon microscope and, after three-dimensional reconstruction, the nerve activation patterns of brexpiprazole (OPC-34712) and vehicle groups were quantitatively analyzed using the brain map information. Brexpiprazole was suspended in distilled water containing 5% gum arabic, and orally administered to c-fos-GFP mouse. Five to seven mice were used. The dose of brexpiprazole was 0.3 and 1 mg/kg. The significance level of the test was set to 5%. In the comparison between groups in each brain region, Tukey's multiple comparison test was conducted."}, "[10]": {"tested_on": "non-Tg mouse", "experiment": "Measurement of mouse circadian rhythm locomotor activity in control mice", "assay_type": "in vivo", "source_text": "as §1, §2\nBrexpiprazole was administered to APPSL-Tg mouse immediately before the dark period (17:30-18:30) at a dose of 0.01 and 0.03 mg/kg, and the measurement of the spontaneous locomotor activity was started. […]"}, "[11]": {"details": "0.01 mg/kg oral, n = 6, mean ± standard error"}, "[12]": {"details": "0.03 mg/kg oral, n = 5, mean ± standard error"}}, "data": [{"compound": "COc1cc2c(cc1OC)C(=O)C(CC1CCN(Cc3ccccc3)CC1)C2", "note": "(stereo not drawn) [donepezil]", "values": [{"measurement": "NPI (Neuropsychiatric Inventory) score vs placebo", "setting": "[1]; p value 0.95", "value": "no statistically significant difference"}, {"measurement": "CMAI (Cohen-Mansfield Agitation Inventory) score vs placebo", "setting": "[1]; p value 0.98", "value": "no statistically significant difference"}]}, {"compound": "C=C1CC[C@@]2(O)[C@H]3Cc4ccc(O)c5c4[C@@]2(CCN3CC2CC2)[C@H]1O5", "note": "[Nalmefene]", "values": [{"measurement": "effect in the limited access paradigm evaluation system", "setting": "[2]", "value": "shows effect in this evaluation system"}]}, {"compound": "O=C(CCCN1CCC(O)(c2ccc(Cl)cc2)CC1)c1ccc(F)cc1", "note": "[haloperidol]", "values": [{"measurement": "schizophrenia-like behaviors", "setting": "[3]", "value": "reduced the schizophrenia-like behaviors"}, {"measurement": "hostility (positive scale of PANSS)", "setting": "[4]", "value": "aggravated hostility"}]}, {"compound": "O=c1ccc2ccc(OCCCCN3CCN(c4cccc5sccc45)CC3)cc2[nH]1", "note": "[brexpiprazole, 7-[4-(4-benzo[b]thiophen-4-yl-piperazin-1-yl)butoxy]-1H-quinolin-2-one]", "values": [{"measurement": "ethanol intake observed individually", "setting": "[5]; 0.1 mg/kg oral for 4 days, five rats", "value": "all rats showed a decrease in the ethanol intake"}, {"measurement": "average ethanol intake in the limited access paradigm", "setting": "[5]; 0.1 mg/kg oral once per day for 4 days, 1 hr before, vs 4 days before drug", "value": "statistically significant suppression of ethanol intake"}, {"measurement": "spontaneous locomotor activity at Night 3, dark period phase III, vs vehicle (in words)", "setting": "[6]; 0.01 mg/kg oral, P<0.01", "value": "significantly suppressed the spontaneous locomotor activity at Night 3"}, {"measurement": "spontaneous locomotor activity in dark period phase III compared to the vehicle group (Night 1-Night 3)", "setting": "[6]; 0.01 mg/kg oral, P<0.05", "value": "significantly suppress the spontaneous locomotor activity"}, {"measurement": "spontaneous locomotor activity in dark period phase III compared to the vehicle group (Night 1-Night 3)", "setting": "[6]; 0.03 mg/kg oral, P=0.050", "value": "significantly suppress the spontaneous locomotor activity"}, {"measurement": "spontaneous locomotor activity at Night 3, dark period phase III, vs vehicle (in words)", "setting": "[6]; 0.03 mg/kg oral, P=0.068", "value": "tended to suppress at Night 3"}, {"measurement": "spontaneous locomotor activity, dark period III (3:00-7:00), Night 1", "setting": "[6]; [11]", "value": 7256}, {"measurement": "spontaneous locomotor activity, dark period III (3:00-7:00), Night 2", "setting": "[6]; [11]", "value": 6466}, {"measurement": "spontaneous locomotor activity, dark period III (3:00-7:00), Night 3", "setting": "[6]; 0.01 mg/kg oral, n = 6, mean ± standard error, P < 0.01 vs vehicle", "value": 4928}, {"measurement": "spontaneous locomotor activity, dark period III (3:00-7:00), Night 1", "setting": "[6]; [12]", "value": 6014}, {"measurement": "spontaneous locomotor activity, dark period III (3:00-7:00), Night 2", "setting": "[6]; [12]", "value": 5443}, {"measurement": "spontaneous locomotor activity, dark period III (3:00-7:00), Night 3", "setting": "[6]; 0.03 mg/kg oral, n = 5, mean ± standard error, P = 0.068 vs vehicle", "value": 6845}, {"measurement": "influence on spontaneous locomotor activity under novel environments", "setting": "[7]", "value": "does not influence spontaneous locomotor activity"}, {"measurement": "time necessary for the first biting compared to the vehicle group", "setting": "[8]; P<0.05", "value": "significantly elongated"}, {"measurement": "number of biting for 10 min compared to the vehicle group", "setting": "[8]; P=0.0709", "value": "tended to show a decreased number of biting"}, {"measurement": "GFP signal in the medial prefrontal cortex (ACA, PL, IL) relative to vehicle", "setting": "[9]; 0.3 mg/kg oral", "value": "significantly increased GFP signal"}, {"measurement": "GFP signal in the medial prefrontal cortex (ACA, PL, IL) relative to vehicle", "setting": "[9]; 1 mg/kg oral", "value": "significantly increased GFP signal"}, {"measurement": "spontaneous locomotor activity in dark period", "setting": "[10]", "value": "did not decrease the spontaneous locomotor activity"}]}, {"compound": "Cc1nc2n(c(=O)c1CCN1CCC(c3noc4cc(F)ccc34)CC1)CCCC2", "note": "[risperidone]", "values": [{"measurement": "hostility (positive scale of PANSS)", "setting": "[4]", "value": "aggravated hostility"}]}]}
